Assay results reported in patent US12122816B2, “Long acting peptide tyrosine tyrosine (PYY) analogs and methods of use” (Intarcia Therapeutics, Inc., priority 2020, dated 2024).
Starred links: 1 amine or outer side, 2 acyl side, 3 side chain; linkers in the order of their positions; H or OH if unused. Non-standard residues stand in square brackets, D forms with d. Residues, ends and D or L forms follow the SMILES beside them. Groups on a side chain read outwards from the residue. *: point of attachment. C20 diacid = O=C(O)CCCCCCCCCCCCCCCCCCC(=O)*; γGlu = O=C(O)[C@H](CCC(=O)[*:2])N[*:1]; NMeY = CN[C@@H](Cc1ccc(O)cc1)C(=O)O

What was measured:
Assay in all cases: NPY receptor functional assay (cAMP, HEK-CNG cells, ACTOne membrane potential dye)
Type in all cases: cell-based
human Y4 receptor = human Y4 receptor (Homo sapiens, UniProt P50391); conditions: standard PP, species (human or rat) not given
From the text: (§1) The NPY family of G-protein coupled receptors include Y1, Y2, Y4, and Y5 in humans and rats. […] Following agonist binding, the receptor-G protein complex activates a downstream intracellular signaling cascade which leads to inhibition of adenylate cyclase and a reduction in intracellular cAMP levels.
(§2) HEK-CNG cells stably expressing the human or rat Y1, Y2, Y4 or Y5 receptors (Codex Biosolutions) were used to characterize the functional potency of peptide agonists using the ActOne™ membrane potential dye kit (Codex Biosolutions). In addition to each NPY receptor, each cell line encodes a proprietary exogenous Cyclic Nucleotide-Gated (CNG) channel (Codex Biosolutions). The channel is activated by elevated intracellular levels of cAMP, resulting in ion flux and cell membrane depolarization which can be detected with a calcium sensitive dye or fluorescent membrane potential (MP) dye. Cells were carried in growth media containing 90% DMEM, 10% FBS, 250 mcg/mL G418 and 1 mcg/mL puromycin for no more than 15 passages.
(§3) Prior to testing, cells were counted and dispensed at 14,000 cells per well (Y1, Y4 and Y5) or 28,000 cells per well (Y2) into black 384 well Poly-D-Lysine plates at 20 mcL per well. Covered plates were then incubated at room temperature for 30 minutes followed by an overnight incubation at 37° C. in 5% C02. The following day, media was removed and wells were washed once with 40 mcL Dulbecco's phosphate buffered saline. […] Ten microliters of experimental peptide or peptide standard was added in triplicate to wells and incubated for 50 minutes at room temperature in the dark. Following this incubation step, plates were read again as before (final read).
(§4) NPY receptor activation, leading to a reduction in intracellular cAMP levels, is detected as a decrease in isoproteranol induced fluorescent signal. Peptide standard and experimental values were initially transformed in excel using the formula: final read/initial read. Transformed values were then normalized to receptor specific standard values (1×10−13 M minimum and 1×10−7 M maximum) using the formula: (test value−standard minavg)/(standard maxavg−standard minavg)*100. […] Normalized data was analyzed from triplicate tests and used to estimate the EC50 for each test peptide on each receptor. Data was fit in GraphPad Prism software (v8.2.1) using a 3-parameter logistic curve model: Y=Bottom+(Top−Bottom)/(1+10^((LogEC50−X))). EC50 values were converted to pEC50 values using the formula: pEC50=−Log(EC50).

human Y5 receptor = molecular target: T1, human Y5 receptor (Homo sapiens, UniProt Q15761); conditions: NPY5R pEC50, HEK-CNG cells; standard NPY; species (human or rat) not given
T1 sequence (Q15761 1-445): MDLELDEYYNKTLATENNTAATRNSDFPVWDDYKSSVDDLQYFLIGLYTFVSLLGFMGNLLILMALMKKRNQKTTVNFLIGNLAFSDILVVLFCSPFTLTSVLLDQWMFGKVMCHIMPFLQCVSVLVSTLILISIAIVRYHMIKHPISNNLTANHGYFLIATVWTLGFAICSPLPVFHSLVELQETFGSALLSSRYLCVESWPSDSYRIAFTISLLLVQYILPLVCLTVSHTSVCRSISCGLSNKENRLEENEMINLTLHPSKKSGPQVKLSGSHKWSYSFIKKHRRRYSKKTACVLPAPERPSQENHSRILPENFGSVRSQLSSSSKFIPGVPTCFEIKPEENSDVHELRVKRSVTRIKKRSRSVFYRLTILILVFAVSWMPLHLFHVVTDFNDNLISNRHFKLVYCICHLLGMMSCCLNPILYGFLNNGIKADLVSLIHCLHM
From the text: as §1, §2, §3, §4

human Y2 receptor = molecular target: T2, human Y2 receptor (Homo sapiens, UniProt P49146); conditions: NPY2R pEC50, HEK-CNG cells; standard PYY(3-36); species (human or rat) not given
T2 sequence (P49146 1-381): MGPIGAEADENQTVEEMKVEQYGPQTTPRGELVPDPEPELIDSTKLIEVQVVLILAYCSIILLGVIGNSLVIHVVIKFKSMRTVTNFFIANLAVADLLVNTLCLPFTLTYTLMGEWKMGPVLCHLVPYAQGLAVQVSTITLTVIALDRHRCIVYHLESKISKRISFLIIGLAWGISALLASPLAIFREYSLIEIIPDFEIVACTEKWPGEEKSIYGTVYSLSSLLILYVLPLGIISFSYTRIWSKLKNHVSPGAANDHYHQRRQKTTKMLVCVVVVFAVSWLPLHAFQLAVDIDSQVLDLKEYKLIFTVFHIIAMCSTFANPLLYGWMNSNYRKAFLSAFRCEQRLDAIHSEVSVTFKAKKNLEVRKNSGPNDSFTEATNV
From the text: as §1, §2, §3, §4

Sequence of human Y4 receptor (P50391 whole entry): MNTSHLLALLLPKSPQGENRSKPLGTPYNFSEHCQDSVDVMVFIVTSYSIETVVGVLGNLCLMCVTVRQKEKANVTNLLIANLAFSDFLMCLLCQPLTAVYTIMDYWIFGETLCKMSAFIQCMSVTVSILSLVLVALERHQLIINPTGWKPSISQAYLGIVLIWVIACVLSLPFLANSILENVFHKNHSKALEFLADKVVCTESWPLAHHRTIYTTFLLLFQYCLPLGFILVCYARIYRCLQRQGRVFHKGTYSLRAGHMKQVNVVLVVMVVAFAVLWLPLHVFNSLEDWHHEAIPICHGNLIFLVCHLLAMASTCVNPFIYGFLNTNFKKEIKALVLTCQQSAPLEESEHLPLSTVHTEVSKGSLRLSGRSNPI

| SMILES | NPY4R pEC50 (human Y4 receptor) | EC50 (human Y5 receptor) [nM] | EC50 (human Y2 receptor) [nM] |
| --- | --- | --- | --- |
| CC(C)C[C@H](NC(=O)[C@H](CC(=O)O)NC(=O)[C@H](C)NC(=O)[C@H](Cc1ccc(O)cc1)NC(=O)[C@H](Cc1ccc(O)cc1)NC(=O)[C@H](CCCNC(=N)N)NC(=O)[C@H](CC(N)=O)NC(=O)[C@H](Cc1c[nH]c2ccccc12)NC(=O)[C@H](CCC(=O)O)NC(=O)[C@H](CCC(=O)O)NC(=O)[C@@H]1CCCN1C(=O)[C@H](CO)NC(=O)[C@H](C)NC(=O)[C@H](CC(=O)O)NC(=O)[C@H](CCCCN)NC(=O)CNC(=O)[C@@H]1CCCN1C(=O)[C@H](C)NC(=O)[C@H](CCC(=O)O)NC(=O)[C@@H]1CCCN1C(=O)[C@H](CCCCN)NC(=O)[C@@H]1CCCN1)C(=O)N[C@@H](CCCNC(=N)N)C(=O)N[C@@H](Cc1c[nH]cn1)C(=O)N[C@@H](CCCCNC(=O)CC[C@H](NC(=O)CC[C@H](NC(=O)CCCCCCCCCCCCCCCCCCC(=O)O)C(=O)O)C(=O)O)C(=O)N[C@@H](CC(C)C)C(=O)N[C@@H](CC(N)=O)C(=O)N[C@@H](Cc1c[nH]c2ccccc12)C(=O)N[C@@H](CC(C)C)C(=O)N[C@H](C(=O)N[C@@H](CCCNC(=N)N)C(=O)N[C@@H](CCC(N)=O)C(=O)N[C@@H](CCCNC(=N)N)C(=O)N[C@@H](Cc1ccccc1)C(N)=O)[C@@H](C)O [Compound A52] | inactive | 10 | 3.98 |
| CC(C)C[C@H](NC(=O)[C@H](Cc1ccc(O)cc1)NC(=O)[C@H](Cc1c[nH]cn1)NC(=O)[C@H](CCCNC(=N)N)NC(=O)[C@H](C)NC(=O)[C@H](CC(=O)O)NC(=O)[C@H](C)NC(=O)[C@H](Cc1ccc(O)cc1)NC(=O)[C@H](Cc1ccc(O)cc1)NC(=O)[C@H](CCCNC(=N)N)NC(=O)[C@H](CC(N)=O)NC(=O)[C@H](Cc1c[nH]c2ccccc12)NC(=O)[C@H](CCC(=O)O)NC(=O)[C@H](CCC(=O)O)NC(=O)[C@@H]1CCCN1C(=O)[C@H](CO)NC(=O)[C@H](C)NC(=O)[C@H](CC(=O)O)NC(=O)[C@H](CCCCN)NC(=O)CNC(=O)[C@@H]1CCCN1C(=O)[C@H](C)NC(=O)[C@H](CCCCNC(=O)CC[C@H](NC(=O)CC[C@H](NC(=O)CCCCCCCCCCCCCCCCCCC(=O)O)C(=O)O)C(=O)O)NC(=O)[C@@H]1CCCN1C(=O)[C@H](CCCCN)NC(=O)[C@@H]1CCCN1)C(=O)N[C@@H](CC(N)=O)C(=O)N[C@@H](Cc1c[nH]c2ccccc12)C(=O)N[C@@H](CC(C)C)C(=O)N[C@H](C(=O)N[C@@H](CCCNC(=N)N)C(=O)N[C@@H](CCC(N)=O)C(=O)N[C@@H](CCCNC(=N)N)C(=O)N(C)[C@@H](Cc1ccc(O)cc1)C(N)=O)[C@@H](C)O [Compound A6] | inactive | 20 | 1.26 |
| CC(C)C[C@H](NC(=O)[C@H](Cc1ccc(O)cc1)NC(=O)[C@H](Cc1c[nH]cn1)NC(=O)[C@H](CCCNC(=N)N)NC(=O)[C@H](C)NC(=O)[C@H](CC(=O)O)NC(=O)[C@H](C)NC(=O)[C@H](Cc1ccc(O)cc1)NC(=O)[C@H](Cc1ccc(O)cc1)NC(=O)[C@H](CCCNC(=N)N)NC(=O)[C@H](CC(N)=O)NC(=O)[C@H](Cc1c[nH]c2ccccc12)NC(=O)[C@H](CCC(=O)O)NC(=O)[C@H](CCC(=O)O)NC(=O)[C@@H]1CCCN1C(=O)[C@H](CO)NC(=O)[C@H](C)NC(=O)[C@H](CC(=O)O)NC(=O)[C@H](CCCCN)NC(=O)CNC(=O)[C@@H]1CCCN1C(=O)[C@H](C)NC(=O)[C@H](CCC(=O)O)NC(=O)[C@@H]1CCCN1C(=O)[C@H](CCCCNC(=O)CC[C@H](NC(=O)CC[C@H](NC(=O)CCCCCCCCCCCCCCCCCCC(=O)O)C(=O)O)C(=O)O)NC(=O)[C@@H]1CCCN1)C(=O)N[C@@H](CC(N)=O)C(=O)N[C@@H](Cc1c[nH]c2ccccc12)C(=O)N[C@@H](CC(C)C)C(=O)N[C@H](C(=O)N[C@@H](CCCNC(=N)N)C(=O)N[C@@H](CCC(N)=O)C(=O)N[C@@H](CCCNC(=N)N)C(=O)N(C)[C@@H](Cc1ccc(O)cc1)C(N)=O)[C@@H](C)O [Compound A5] | inactive | 10 | 20 |
| CC(C)C[C@H](NC(=O)[C@H](Cc1ccc(O)cc1)NC(=O)[C@H](Cc1c[nH]cn1)NC(=O)[C@H](CCCNC(=N)N)NC(=O)[C@H](C)NC(=O)[C@H](CC(=O)O)NC(=O)[C@H](C)NC(=O)[C@H](Cc1ccc(O)cc1)NC(=O)[C@H](Cc1ccc(O)cc1)NC(=O)[C@H](CCCNC(=N)N)NC(=O)[C@H](CC(N)=O)NC(=O)[C@H](CC(C)C)NC(=O)[C@H](CCC(=O)O)NC(=O)[C@H](CCC(=O)O)NC(=O)[C@@H]1CCCN1C(=O)[C@H](CO)NC(=O)[C@H](C)NC(=O)[C@H](CC(=O)O)NC(=O)[C@H](CCCCN)NC(=O)[C@H](CCCCNC(=O)CC[C@H](NC(=O)CC[C@H](NC(=O)CCCCCCCCCCCCCCCCCCC(=O)O)C(=O)O)C(=O)O)NC(=O)[C@@H]1CCCN1C(=O)[C@H](C)NC(=O)[C@H](CCC(=O)O)NC(=O)[C@@H]1CCCN1C(=O)[C@H](CCCCN)NC(=O)[C@@H]1CCCN1)C(=O)N[C@@H](CC(N)=O)C(=O)N[C@@H](Cc1c[nH]c2ccccc12)C(=O)N[C@@H](CC(C)C)C(=O)N[C@H](C(=O)N[C@@H](CCCNC(=N)N)C(=O)N[C@@H](CCC(N)=O)C(=O)N[C@@H](CCCNC(=N)N)C(=O)N[C@@H](Cc1ccccc1)C(N)=O)[C@@H](C)O [Compound A64] (H-PKPEAPK([γGlu-γGlu-C20 diacid])KDASPEELNRYYADARHYLNWLTRQRF-NH2; N-terminus assumed) | inactive | 12.6 | 2.51 |
| CC(C)C[C@H](NC(=O)[C@H](Cc1ccc(O)cc1)NC(=O)[C@H](Cc1c[nH]cn1)NC(=O)[C@H](CCCNC(=N)N)NC(=O)[C@H](C)NC(=O)[C@H](CC(=O)O)NC(=O)[C@H](C)NC(=O)[C@H](Cc1ccc(O)cc1)NC(=O)[C@H](Cc1ccc(O)cc1)NC(=O)[C@H](CCCNC(=N)N)NC(=O)[C@H](CC(N)=O)NC(=O)[C@H](Cc1c[nH]c2ccccc12)NC(=O)[C@H](CCC(=O)O)NC(=O)[C@H](CCC(=O)O)NC(=O)[C@@H]1CCCN1C(=O)[C@H](CO)NC(=O)[C@H](C)NC(=O)[C@H](CC(=O)O)NC(=O)[C@H](CCCCN)NC(=O)CNC(=O)[C@@H]1CCCN1C(=O)[C@H](C)NC(=O)[C@H](CCC(=O)O)NC(=O)[C@@H]1CCCN1C(=O)[C@H](CCCCN)NC(=O)[C@@H]1CCCN1C(=O)[C@@H](N)CCCCNC(=O)CC[C@H](NC(=O)CC[C@H](NC(=O)CCCCCCCCCCCCCCCCCCC(=O)O)C(=O)O)C(=O)O)C(=O)N[C@@H](CC(N)=O)C(=O)N[C@@H](Cc1c[nH]c2ccccc12)C(=O)N[C@@H](CC(C)C)C(=O)N[C@H](C(=O)N[C@@H](CCCNC(=N)N)C(=O)N[C@@H](CCC(N)=O)C(=O)N[C@@H](CCCNC(=N)N)C(=O)N(C)[C@@H](Cc1ccc(O)cc1)C(N)=O)[C@@H](C)O [Compound A4] (H-K([γGlu-γGlu-C20 diacid])PKPEAPGKDASPEEWNRYYADARHYLNWLTRQR[NMeY]-NH2; N-terminus assumed) | inactive | 50.1 | 2 |
